Results on 1 molecule are retold here after patent publication US20240390434A1, “PROBIOTIC ENHANCERS AND USES THEREOF” (Blis Technologies Limited, priority 2021, published 2024).

In this test the test system is indicator strains. Nature of the test: Deferred antagonism assay, producer S. salivarius K12: total strains inhibited. Particulars: K12. It is filed as cell-based. The method, then:
1-2 producer strain colonies were transferred from a stock plate into 900 μL of suspension solution using a fresh cotton swab. Following this, suspensions were vortexed, and a sample was inoculated onto solid culture media using a fresh cotton swab. The inoculation was a streak that runs diametrically across the agar plate in a 1.5 cm wide strip. The plate was then incubated. Following incubation all visible colonies were removed by swabbing them from the agar surface. The plates were then treated with chloroform by dispensing 2 ml of chloroform onto 4 cm×4 cm piece of cloth and sealing the inverted agar plate on top for 30 minutes. The plates were then air dried for 30 minutes following chloroforming. 1-2 indicator strain colonies were then transferred from a stock plate into complementary suspension solution. The suspensions were then vortexed, and a sample was inoculated onto the same agar surface. These samples were streaked in a perpendicular direction to the initial producer streak.
Each indicator streak was prepared with fresh a suspension containing cells from a corresponding stock plate containing the indicator strain of interest. Indicator strains suspension samples were transferred using a fresh cotton swab. Results were measured by qualitatively reviewing the subsequent (if any) sizes of the zones of inhibition (ZOI) of indicator strain colony growth. A positive result is when there is a distinctive reduction or complete inhibition of indicator colony growth on the culture medium.
CABCa agar plates containing various concentrations of saccharide were prepared according to the methods described in Method 1. Producer strains were transferred from stock agar plates into 900 μL THB using a fresh cotton swab. A plastic spread plater was cut to approximately 1.2 cm width and then dipped into ethanol and left to air dry to ensure sterility. A 100 μL sample of the producer strain suspension was then dispensed onto the agar surface in a straight line running diametrically across the agar surface in (approximately) 20 μL spots. The spots were spaced approximately 1.5 cm apart from each other. The plastic spreader was then used to evenly distribute the spots across the agar surface in a 1.5 cm wide strip. This step was taken to ensure an even producer streak was inoculated onto the agar surface and provided an approximate measure of the initial inoculum concentration. Separate plastic spreaders were used for samples containing different producer strains. The samples were left to soak into the agar surface until there was no visible liquid remaining on the agar surface (approximately 20 minutes). Following producer streak preparations, the deferred antagonism assay protocol was followed as per Method 2. Results were recorded by measuring the size of the zone of inhibition (ZOI) in mm.
A dose response assay was carried out according to method 3 above, except a 1.2 cm streak was used. For the individual saccharide testing the pH of the producer streak was adjusted after the growth of producer to change the acidic conditions.
A deferred antagonism assay was conducted using K12 or M18 raw ingredient suspended in Todd Hewitt broth (THB). This was spread as a 1.2 cm streak containing approximately 1-2×10^6 cfu down the middle of a CABCa control or CABCa galactose supplemented test plate. After 18 hrs growth at 37° C. with 5% CO2, bacterial growth was removed, and the pH of the agar in the initial streak was measured and adjusted to a pH of 6.5-7.5 using 0.5M sodium carbonate pH11 before sterilizing the agar surface using chloroform vapor. Bacterial test strains were suspended in i-THB before being swabbed across the plates perpendicular to the initial streak. Plates were incubated for a further 18 hrs incubation at 37° C. with 5% CO2 before measuring (mm) any zones of inhibition for each test strain, […]

For `O=C(CO)[C@@H](O)[C@H](O)[C@H](O)CO` [Fructose, D-(−) Fructose, reference compound], the Total strains inhibited is, setting by setting: (saccharide 3.3% w/v) 0/3; (saccharide range 0.83%-3.3% w/v) 0/3.
